According to patent US20240390337A1, “RELA/RSH INHIBITORS FOR THE TREATMENT OR PREVENTION OF MEDICAL BIOFILMS” (DREXEL UNIVERSITY, priority 2021, published 2024):

Experiments:
Pseudomonas aeruginosa = experiment: Toxin production by P. aeruginosa (Example 4, FIG. 42); format: cell-based; details: read-out: EC50 of inhibition of toxin production
RelA enzyme [1] = molecular target: T1, RelA enzyme (Escherichia coli, UniProt P0AG20); experiment: Semi-HTS and IC50, in vitro RelA ppGpp production assay ([α-32P]GTP); format: biochemical, E. coli; details: for IC50: concentration gradient, in vitro radio isotope assay
T1 sequence (P0AG20 whole entry): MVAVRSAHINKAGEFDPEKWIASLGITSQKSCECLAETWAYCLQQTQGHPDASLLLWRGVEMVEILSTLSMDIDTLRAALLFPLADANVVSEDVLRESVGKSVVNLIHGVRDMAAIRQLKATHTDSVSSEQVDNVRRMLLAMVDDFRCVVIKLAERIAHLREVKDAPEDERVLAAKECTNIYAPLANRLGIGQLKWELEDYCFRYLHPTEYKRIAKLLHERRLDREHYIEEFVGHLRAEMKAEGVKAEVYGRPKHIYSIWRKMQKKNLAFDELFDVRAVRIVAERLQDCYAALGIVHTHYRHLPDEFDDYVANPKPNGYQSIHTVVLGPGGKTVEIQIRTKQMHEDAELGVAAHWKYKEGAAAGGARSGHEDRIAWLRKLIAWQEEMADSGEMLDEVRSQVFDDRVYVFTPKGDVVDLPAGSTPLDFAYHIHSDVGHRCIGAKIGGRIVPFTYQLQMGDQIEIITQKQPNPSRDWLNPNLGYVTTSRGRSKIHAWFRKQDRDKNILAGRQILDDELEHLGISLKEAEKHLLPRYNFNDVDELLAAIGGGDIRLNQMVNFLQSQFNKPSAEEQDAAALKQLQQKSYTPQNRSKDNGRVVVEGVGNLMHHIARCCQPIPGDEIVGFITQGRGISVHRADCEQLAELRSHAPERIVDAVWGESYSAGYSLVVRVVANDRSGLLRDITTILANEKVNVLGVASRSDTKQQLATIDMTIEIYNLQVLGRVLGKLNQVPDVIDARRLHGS
Description: The next step of the semi-HTS was to run the 40 in silico determined compounds in an in vitro RelA assay at a relatively high concentration of 200 μM, to test if there is any effect on RelA ppGpp production using the α-32P-GTP radio isotope in vitro assay. […] From this assay, two compounds were picked to go into later assays (C14 [4.2%], C22 [13.4%]).
The follow-up assay to the semi-HTS is determination of in vitro half-maximal inhibitory concentration (IC50). In vitro IC50 is completed by a concentration gradient run on the in vitro radio isotope assay (FIG. 29B). […] C14 was originally purchased from Enamine®; however, it was later synthesized in-house as more was needed than could be purchased.
RelA enzyme was purified as described in Example 2.

[2] = system: (p)ppGpp production in E. coli C; experiment: In vivo (p)ppGpp quantification in E. coli C (32P orthophosphate, serine hydroxamate, TLC); format: cell-based; details: 20 μM compound
Description: In vivo (p)ppGpp Quantification: In vivo (p)ppGpp quantification was carried out. One milliliter of overnight cell culture of E. coli C was placed in 1.5-mL microcentrifuge tubes and pelleted. To this pellet was added 50 μL of a reaction mixture containing 20 μCi orthophosphoric acid and 40 μM serine hydroxamate in 1×MOPS minimal medium. The cell pellet was resuspended by gentle vortexing and placed in an incubator for 1 h. Cell growth arrest and cell lysis were completed by addition of 15 μL formic acid (88%). The lysate was then centrifuged to remove any insoluble components and the supernatant was spotted on a stationary-phase PEI-cellulose TLC plate. Plates were processed and analyzed as described elsewhere herein.

RelA enzyme [3] = molecular target: T1, RelA enzyme; experiment: In vitro (p)ppGpp quantification (RelA ppGpp production assay, [γ-32P]ATP, TLC); details: 20 μM compound
Description: The direct (p)ppGpp detection in vivo and in vitro assays relied on different 32P radioactive nucleotides (γ-32P-ATP, α-32P-GTP) for use as substrates, and thin-layer chromatography (TLC) to separate the reaction products (stationary phase: polyethylenimine cellulose).
Both methods required TLC with a stationary phase of a polyethyleneimine (PEI)-cellulose plate and a mobile phase of 1 M potassium phosphate monobasic.
In vitro (p)ppGpp quantification: in vitro (p)ppGpp quantification was carried out. […] Roughly 0.4 μg of RelA protein was added to a 1.5-mL microcentrifuge tube containing a reaction mix composed of 1×PBS, 5 mM MgCl2, 0.5 mM ATP, 0.5 mM GTP, 0.5 mM GDP, and 20 μCi[γ-32P]ATP (3,000 Ci mmol-1; PerkinElmer) and varying concentrations of the compound of interest. These reactions were incubated at 37° C. for 1 h. The reactions were stopped by addition of 5 μL formic acid (88%). The reaction mixtures were then spotted on a stationary-phase polyethyleneimine (PEI)-cellulose TLC plate using potassium phosphate monobasic (1.5 M) as the mobile-phase. The plates were then dried, and the radiation levels were read using a Molecular Dynamics Storage Phosphor Screen. A Molecular Dynamics Storm 840 Phosphor imager Scanner was used to read the phosphor screen and ImageJ was used to process the images.

P. aeruginosa PA14 [4] = experiment: Biofilm formation in P. aeruginosa PA14; format: cell-based
Description: (§1) Biofilm Inhibition Assays: For biofilm formation on polystyrene surfaces, flat-bottom 96-well microtiter plates (Corning Inc.) were used. […] The biofilm mass was measured by the CV staining assay described elsewhere herein.

E. coli C [5] = experiment: E. coli C aggregation assay; details: high salt, low temperature, amino acid starvation
Description: E. coli C was grown in LB Miller broth at 30° C. with shaking (250 rpm) with or without compounds. E. coli C ΔrelA mutant was also grown as a control. One milliliter of the culture was transferred to standard polypropylene spectrophotometer cuvettes to measure planktonic cells densities (OD600). Remaining cultures were vortexed ˜1 min and 1 mL was aliquoted into cuvettes to measure the total cell densities (OD600). Aggregation was calculated as a ratio of planktonic to total cell density.

P. aeruginosa PA14 [6] = system: P. aeruginosa PA14
Description: P. aeruginosa PA14 was grown overnight in LB Miller broth at 37° C. with shaking (250 rpm). […] This was then grown for 18 h at 37° C. Cells were pelleted by centrifugation. One milliliter of supernatant was collected, and 1 mL of chloroform was added to the supernatant. Layers were separated and OD690 was taken for chloroform layer (blue). OD690 was normalized to culture cell density OD600.

P. aeruginosa PA01 = experiment: Biofilm formation in P. aeruginosa PA01; format: cell-based; details: results not shown
Description: as §1

E. coli C biofilm [7] = experiment: Biofilm inhibition assay (crystal violet); format: cell-based; details: results not shown
Description: Studies were conducted in 96-well high-throughput assays. In the biofilm inhibition assay, compounds were added to the wells at the beginning of the experiment. For the biofilm dispersal assay, the biofilm was allowed to grow for 24 and 48 h, the wells were washed with sterile phosphate-buffered saline (PBS), and fresh medium supplemented with the compounds was added to the wells. The amount of biofilm was measured after 24 h.
as §1

E. coli C [8] = experiment: Cell growth curves (planktonic growth, OD600); details: 30 μg·mL−1
Description: Cell Growth Curves: The effect of the hit compounds on bacterial growth was tested by adding compounds at multiple concentrations to the bacterial culture (100× diluted overnight culture; approximately 10^7 cells) in fresh LB medium. Two hundred microliters aliquots were pipetted into 96-well plates and placed into a Biotek HT or Tecan Infinite M200 Pro plate reader for 18 h at 37° C. Plates were shaken during incubation and the optical density (OD630 or OD600) was measured every 15 min.
The effect of the hit compounds on bacterial growth was tested by adding compounds at 200 μM (with DMSO control) to the bacterial culture (100× diluted overnight culture; approximately 10^7 cells) in fresh LB medium. Two hundred microliter aliquots were pipetted into 96-well plates, which were placed into a Biotek HT or Tecan Infinite M200 Pro plate reader for 18 h at 37° C. Plates were shaken during incubation and the optical density (OD630 or OD600) was measured every 15 min.

E. coli C biofilm [9] = experiment: AlamarBlue viability assay of biofilm cells, compounds plus ampicillin; format: cell-based
Description: Synergistic Effects of Compounds and Antibiotics: Biofilms were grown for 24, 48, or 72 h as described elsewhere herein. Planktonic cells were then removed, and biofilms were washed twice with 250 μL sterile PBS solution. Two hundred microliter aliquots of fresh LB medium with multiple concentrations of the tested compounds and ampicillin were dispensed into the wells. After 18 h of incubation at 37° C., the biofilm mass was measured as described elsewhere herein. For the AlamarBlue viability test, 4 μL of AlamarBlue (Invitrogen) was added and plates were incubated in a Biotek HT plate reader at 37° C. for 4 h. Cell viability was measured as fluorescence at 530/590 nm (excitation/emission) versus compound concentration or initial cell density.

E. coli C biofilm [10] = experiment: Synergistic effects of compounds and ampicillin on biofilm biomass (crystal violet); format: cell-based; details: versus antibiotic-only control; for reduction of biofilm biomass at Amp40: ampicillin 40 μg·mL−1, S3-G1A and S3-G1B 50 μM, IDR1018 5 μM; for reduction in biofilm biomass at Amp50: ampicillin 50 μg·mL−1
Description: Biofilm Dispersal Assays: For biofilm formation on polystyrene surfaces, flat-bottom 96-well microtiter plates (Corning Inc.) were used. […] These were allowed to grow for 24 h. The planktonic cells and medium were then aspirated, and the plates were washed twice with 1×PBS. Fresh LB with hit compounds were added to the biofilm wells. These cultures were then allowed to incubate at 37° C. overnight. Cell density were measured (OD600) using a Multiscan Go plate reader (ThermoFisher), and 30 μL Gram crystal violet (CV) (Remel; 3 g crystal violet, 50 mL isopropanol, 50 mL ethanol, 900 mL purified water) was applied for staining for 1 h. Plates were washed with water and air dried, and CV was solubilized with an ethanol:acetone (4:1) solution. The OD570 was determined from this solution, and the biofilm volume was calculated as the ratio of OD570 to OD600. Synergistic Effects of Compounds and Antibiotics: Biofilms were grown for 24, 48, or 72 h as described elsewhere herein. Planktonic cells were then removed, and biofilms were washed twice with 250 μL sterile PBS solution. Two hundred microliter aliquots of fresh LB medium with multiple concentrations of the tested compounds and ampicillin were dispensed into the wells. After 18 h of incubation at 37° C., the biofilm mass was measured as described elsewhere herein. For the AlamarBlue viability test, 4 μL of AlamarBlue (Invitrogen) was added and plates were incubated in a Biotek HT plate reader at 37° C. for 4 h. Cell viability was measured as fluorescence at 530/590 nm (excitation/emission) versus compound concentration or initial cell density.

E. coli C biofilm [11] = experiment: Biofilm persistence assay with ampicillin (crystal violet); format: cell-based
Description: Biofilm persistence and viability were assessed with the hit compounds in combination with an antibiotic. It has been determined that sub-MICs (minimum inhibitory concentration) of antibiotic result in increased biofilm formation. Ampicillin was used in all of the assays due to its bactericidal effect. Sub-MIC concentrations of ampicillin were determined by growth measurements (OD600). […] Biofilm Persistence Assays with Ampicillin: Biofilms were grown for 24 or 48 h as described elsewhere herein. Planktonic cells were removed, and the biofilms were washed twice with 250 μL sterile PBS solution. Two hundred microliters of fresh LB medium with various concentrations of ampicillin were dispensed into the wells. After 18 h of incubation at 37° C., the volume of biofilm was measured by CV staining as described elsewhere herein.

Compound | IC50 (RelA enzyme [1]) [µM] | reduction in ppGpp production, in vivo assay [2] | reduction of ppGpp production compared to untreated sample, in vitro assay (RelA enzyme [3]) [%] | effect on pyocyanin production (P. aeruginosa PA14 [6]) | reduction of biofilm biomass at Amp40 (E. coli C biofilm [10]) [%] | reduction in biofilm biomass at Amp50 (E. coli C biofilm [10]) [%] | further results
O=C(O)Cn1cc(C[C@H]2NC(=O)NC2=O)nn1 [Compound C14] | 54 |  |  |  |  |  | EC50 (Pseudomonas aeruginosa): 39.5 nM
CC(C)C(=O)Nc1nc2c(ncn2[C@H]2C[C@H](OC(=O)NCC(=O)NCC(=O)O)[C@@H](COC(=O)NCC(=O)NCC(=O)O)O2)c(=O)[nH]1 [Relacin, reference compound] |  | no effect | 45.4 |  |  |  | 
O=C(O)CCNC(=O)c1cccc(-n2cc(Br)cn2)c1 [Compound C22, 3-(3-(4-bromo-1H-pyrazol-1-yl)benzamido)propanoic acid] | 93 |  |  | produced an effect, it never reached the level of C14 |  |  | biofilm formation compared to the DMSO control (P. aeruginosa PA14 [4]): reduced biofilm formation but not significantly; ppGpp production relative to the untreated control (set at 100%) (RelA enzyme [1]; 200 μM compound): 13.4%; E. coli C aggregation (E. coli C [5]): slightly absent; effect on biofilm formation (P. aeruginosa PA01): little effect; effect on biofilm formation (E. coli C biofilm [7]): little effect
O=C(N[C@H](C(=O)O)c1ccc(Cl)cc1)c1cc(-c2ccc(O)cc2)n[nH]1 [Compound S3-G1A, (S)-2-(4-chrlorphenyl)-2-(3-(4-hydroxyphenyl)-1H-pyrazole-5carboxamido) acetic acid] |  | 31.4% | 71.7 | small effect | 97.9 | 67.9 | effect on planktonic growth rate / bacterial growth (E. coli C [8]): no effect; reduction of cell viability (AlamarBlue) at Amp30 (E. coli C biofilm [9]; ampicillin 30 μg·mL−1, compound 50 μM): 55.4%; decrease of cell viability (AlamarBlue) at higher concentrations of antibiotic (E. coli C biofilm [9]; higher concentrations of ampicillin (not specified)): 29.2%
CC1(C)S[C@@H]2[C@H](NC(=O)[C@H](N)c3ccccc3)C(=O)N2[C@H]1C(=O)O [Ampicillin] |  |  |  |  |  |  | ampicillin concentration with the highest biofilm biomass (E. coli C biofilm [11]): 80 µg/mL; effect on amount of biofilm (E. coli C biofilm [11]): significantly increased the amount of biofilm
IDR1018 [reference compound] |  |  |  |  | 75.4 | 65.2 | 
